Results on 6 compounds are retold here after US5428018A, “Phenylalanine analogs of bombesin” (Merrell Dow Pharmaceuticals Inc., priority 1994, dated 1995).

pKd: −log10 of the molar value. Where two headings read alike, the source gives them in different places. *1 amine or outer side, *2 acyl side, *3 side chain or, on linkers, in order; H or OH if unused. Where a SMILES comes first, the peptide text is derived from it. [ ]: non-standard residue; d: D form. The star is where a group is joined. X2 = CC(C)C[C@@H](C(N)=O)S(=O)(=O)C[C@H](Cc1ccccc1)N*; X1 = CN(/C(=C\c1ccccc1)C(=O)[*:2])[*:1]; pGlu = O=C1CC[C@@H](C(=O)O)N1

For assay [1], the target named is T1, bombesin receptor (Mus musculus, UniProt P21729).
T1 construct: from tissue
Description: Phosphatidylinositol (PI) turnover in chopped mouse pancreas. Type of assay: cell-based. The protocol: (§1) Pept. […] Pept 32: 241-251, 1991.
Pancrea from mice were chopped at 350 μm with a tissue chopper and pooled in Krebs-Hepes buffer [118 mM NaCl, 1.2 mM K2 PO4, 4.7 mM KCl, 1.2 mM MgSO4, 1.0 mM CaCl2, 11.7 mM glucose, 20 mM Hepes (pH 7.4)]. The chopped tissue was washed once with oxygenated Krebs-Hepes,then incubated for 30 minutes in 37° C. oxygenated Krebs-Hepes buffer with fresh buffer after 15 minutes. The tissue was then incubated in this buffer containing 200 μCi of [^3 H]inositot at 37° C. for 1 hour. The tissue was then washed twice and incubated for another 30 minutes in oxygenated Krebs-Hepes (containing 10 mM Li+) at 37° C. and with fresh buffer change after 15 minutes. Portions of the tissue mass (approximately 10 mg per assay tube) were then placed in Li+ buffer with protease inhibitors (40 μg/ml bacitracin, 4 μg/ml leupeptin, 4 μg/ml chymostatin, 0.8 μg/ml thiorphan), 0.1% BSA, and 0.1-1000 μM peptide. After 60 minutes at room temperature, the phosphatidylinositol turnover was terminated by the addition of 940 μl chloroform:methanol (1:2), followed by 310 μl chloroform, followed by 310 μl water. Each tube was then vortexed three times for 5 seconds each time and then centrifuged at […] for 8 minutes to separate the phases. 50 μl of the bottom phase (chloroform) was withdrawn from each tube and placed in a counting vial, dried, and counted in scintillation fluid. 900 μl of the top (aqueous) phase was then mixed with 2.1 ml water and loaded onto a 0.5 ml Biorad AG-1×8 (formate) ion exchange column. The material on the columns was washed in order with: 1) 10 ml of water 2) 5 ml of […] disodium tetraborate/60 mM sodium formate 3) 10 ml of 1M ammonium formate in 0.1M formic acid. The final (third) wash was collected and one ml was mixed with 14 ml of Bio-Safe or E-Colume scintillant and counted. The ratio of these counts (total inositol phosphates) to the corresponding organic phase counts (inositol incorporated into the tissue) was then calculated for each sample. The ratios in the presence of test compound and/or standards were then compared to the ratios for control tubes (i.e., no stimulating agonist). The abilities of test compounds to stimulate phosphatidylinositol turnover were determined with the aid of a computer program.

The subject of assay [2] is cell surface receptors that bind bombesin. The note with it: background section; read-out: KD of high-affinity cell surface receptors that bind bombesin; cited from earlier work.
Assay [3] deals with T1, bombesin receptor. Description: Competitive binding of 125I-GRP to the bombesin receptor in mouse pancreas membranes. The method, then: as §1
The pancreas from one or more mice were pooled and homogenized in 50 mM HEPES (pH 7.4) containing 120 mM NaCl, 5 mM KCl, and protease inhibitors (1 μg/ml aprotinin, leupeptin, pepstatin; 4 μg/ml bacitracin, antipain, bestatin; 100 μM PMSF; 1 mM EDTA) at 4° C. and centrifuged at 37,500 × g for 15 minutes. The pellet was resuspended in 50 mM HEPES (pH 7.4) containing 10 mM EDTA, 300 mM KCl, and protease inhibitors, and then incubated for 30 minutes at 4° C. The suspension was centrifuged as above and the pellet was washed two times in 50 mM HEPES (pH 7.4) containing 0.8 μg/ml thiorphan and protease inhibitors, and again centrifuged. The tissue was then resuspended in incubation buffer (1 ml per 4 mg pancreas) and incubated for 15 minutes at room temperature, then 250 μl were added to each assay tube to commence the assay. The assay tubes contained incubation buffer consisting of 50 mM HEPES (pH 7.4), 0.5% BSA, protease inhibitors, 2 mM MnCl2, 0.8 μg/ml thiorphan, 1 μM somatostatin, and concentrations of ^125 I-GRP and peptides as needed in a final volume of 500 μl. The assay was allowed to proceed to equilibrium for 90 minutes at room temperature. After this time, the contents of each tube were rapidly filtered over Whatman GF/B filters presoaked in 0.1% polyethyleneimine and the tubes and filters were rapidly washed three times with ice-cold 50 mM HEPES (pH 7.4). Filter-bound radioactivity was quantitated in a gamma counter. Competition of iodinated GRP binding by test compounds or standards was expressed as a percentage of ^125 I-GRP binding in the absence of peptide. Affinity and maximal binding were calculated with LIGAND (Biosoft, Cambridge, UK).

For orientation: pKd means the Kd on a negative log10 scale, so that one unit is a factor of ten.

T1 sequence (P21729 whole entry): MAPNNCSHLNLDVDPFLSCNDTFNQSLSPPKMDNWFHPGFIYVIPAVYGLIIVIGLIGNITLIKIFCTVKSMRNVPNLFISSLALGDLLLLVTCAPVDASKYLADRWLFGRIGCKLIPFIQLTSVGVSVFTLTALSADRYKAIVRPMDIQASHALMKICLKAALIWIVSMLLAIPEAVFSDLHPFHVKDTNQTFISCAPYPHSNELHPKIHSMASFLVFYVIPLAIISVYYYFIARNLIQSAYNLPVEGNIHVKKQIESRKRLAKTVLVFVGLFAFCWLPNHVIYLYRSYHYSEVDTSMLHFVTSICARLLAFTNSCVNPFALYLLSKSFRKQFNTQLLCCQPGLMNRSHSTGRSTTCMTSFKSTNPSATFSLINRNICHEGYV

Consider `CSCC[C@H](NC(=O)[C@H](CC(C)C)NC(=O)[C@H](Cc1cnc[nH]1)NC(=O)CNC(=O)[C@@H](NC(=O)[C@H](C)NC(=O)[C@H](Cc1c[nH]c2ccccc12)NC(=O)[C@H](CCC(N)=O)NC(=O)[C@H](CC(N)=O)NC(=O)CNC(=O)[C@H](CC(C)C)NC(=O)[C@H](CCCN=C(N)N)NC(=O)[C@H](CCC(N)=O)NC(=O)[C@@H]1CCC(=O)N1)C(C)C)C(N)=O` [Analog II, Bombesin], for which, in assay [1], the Agonist entry is reported as “+” and the Antagonist result is reported as “-”. In assay [2], the pKd is 9.00. Take `CSCC[C@H](NC(=O)[C@H](Cc1ccccc1)NC(=O)[C@H](Cc1c[nH]cn1)NC(=O)CNC(=O)[C@@H](NC(=O)[C@H](C)NC(=O)[C@H](Cc1c[nH]c2ccccc12)NC(=O)[C@H](CCC(N)=O)NC(=O)[C@@H]1CCC(=O)N1)C(C)C)C(N)=O` [Analog III, Litorin]: in assay [1], the Agonist result is given as “+” and the Antagonist result is reported as “-”.

With `COC(=O)/C(=C/c1ccccc1)NC(=O)[C@H](CC(C)C)NC(=O)[C@H](Cc1c[nH]cn1)NC(=O)CNC(=O)[C@@H](NC(=O)[C@H](C)NC(=O)[C@H](Cc1c[nH]c2ccccc12)NC(=O)[C@H](CCC(N)=O)NC(=O)[C@@H](Cc1ccccc1)NC(C)=O)C(C)C` [Analog IV, (Ac-D-Phe^1,Leu^8,Δ^Z Phe9)litorin-OMe], the pKd in assay [3] was 8.93. With `CC(C)C[C@@H](C(N)=O)S(=O)(=O)C[C@H](Cc1ccccc1)NC(=O)[C@H](Cc1c[nH]cn1)NC(=O)CNC(=O)[C@@H](NC(=O)[C@H](C)NC(=O)[C@H](Cc1c[nH]c2ccccc12)NC(=O)[C@H](CCC(N)=O)NC(=O)[C@@H]1CCC(=O)N1)C(C)C` [Analog IX, (Phe^8 .PSI.[CH2 SO2]Leu^9 litorin] ([pGlu]QWAVGH-X2; C-terminus assumed), the pKd in assay [3] is 8.00. Moreover, in assay [1], the Antagonist is given as 30. Moreover, the “Agonist/antagonist character in words” value in assay [1] (text under Table 1) was “antagonist”. In assay [3], `COC(=O)/C(=C\c1ccccc1)NC(=O)[C@H](CC(C)C)NC(=O)[C@H](Cc1c[nH]cn1)NC(=O)CNC(=O)[C@@H](NC(=O)[C@H](C)NC(=O)[C@H](Cc1c[nH]c2ccccc12)NC(=O)[C@H](CCC(N)=O)NC(=O)[C@@H](Cc1ccccc1)NC(C)=O)C(C)C` [Analog VII, (Ac-D-Phe^1,Leu^8,Δ^E Phe^9)litorin-OMe] showed a pKd of 7.73. Take `COC(=O)/C(=C/c1ccccc1)N(C)C(=O)[C@H](CC(C)C)NC(=O)[C@H](Cc1c[nH]cn1)NC(=O)[C@@H](C)NC(=O)[C@@H](NC(=O)[C@H](C)NC(=O)[C@H](Cc1c[nH]c2ccccc12)NC(=O)[C@H](CCC(N)=O)NC(=O)[C@@H](Cc1ccccc1)NC(C)=O)C(C)C` [Analog VIII, (Ac-D-Phe^1,D-Ala^6,Leu^8,N(Me)Δ^Z Phe^9) litorin-OMe] (Ac-[dF]QWAV[dA]HL[X1]-OMe): the pKd in assay [3] (competitive binding vs 125I-GRP, mouse pancreas, read-out: Kd) was 7.18.
